Test results taken from the supplement of paper PMC10307832.

Assays:
Test in all cases: relative viability (nuclei count vs DMSO), 5 days (fraction); higher = more cells survive
COR-L23 = tested on: COR-L23
Method in brief: (§1)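 Relative viability divides the nuclei count in treated wells by that in vehicle wells. Lung cancer cell lines were seeded in 1536-well plates, dosed by pin tool the next day, and fixed and stained after 5 days in one step with final 0.05% Triton X-100, 1% formaldehyde and 1 ug/ml Hoechst. Dosing was a single drug or a fixed anchor-drug dose plus five library-drug doses (not always all listed) in √10 steps, and values are medians of duplicate plates imaged at 4×.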

EMC-BAC-2 = tested on: EMC-BAC-2
Method in brief: as §1

HARA = tested on: HARA
Method in brief: as §1

NCI-H2405 = tested on: NCI-H2405
Method in brief: as §1

UMC-11 = tested on: UMC-11
Method in brief: as §1

ChaGo-K-1 = tested on: ChaGo-K-1
Method in brief: as §1

SK-LU-1 = tested on: SK-LU-1
Method in brief: as §1

HCC-78 = tested on: HCC-78
Method in brief: as §1

NCI-H1793 = tested on: NCI-H1793
Method in brief: as §1

A-427 = tested on: A-427
Method in brief: as §1

NCI-H2228 = tested on: NCI-H2228
Method in brief: as §1

NCI-H1944 = tested on: NCI-H1944
Method in brief: as §1

NCI-H23 = tested on: NCI-H23
Method in brief: as §1

HCC-15 = tested on: HCC-15
Method in brief: as §1

HCC-366 = tested on: HCC-366
Method in brief: as §1

NCI-H2023 = tested on: NCI-H2023
Method in brief: as §1

NCI-H1734 = tested on: NCI-H1734
Method in brief: as §1

LC-2-ad = tested on: LC-2-ad
Method in brief: as §1

NCI-H2009 = tested on: NCI-H2009
Method in brief: as §1

NCI-H2126 = tested on: NCI-H2126
Method in brief: as §1

NCI-H1993 = tested on: NCI-H1993
Method in brief: as §1

NCI-H838 = tested on: NCI-H838
Method in brief: as §1

NC(=O)Nc1cc(-c2cccc(F)c2)sc1C(=O)N[C@H]1CCCNC1 [AZD7762] + CC(=O)Nc1cccc(-n2c(=O)n(C3CC3)c(=O)c3c(Nc4ccc(I)cc4F)n(C)c(=O)c(C)c32)c1 [Trametinib] (partner 0.02 µM)
relative viability (COR-L23; first compound 0.01 µM): 0.702
relative viability (COR-L23; first compound 0.03162 µM): 0.623
relative viability (COR-L23; first compound 0.1 µM): 0.518
relative viability (COR-L23; first compound 0.3162 µM): 0.319
relative viability (COR-L23; first compound 1 µM): 0.119
relative viability (EMC-BAC-2; first compound 0.01 µM): 1.02
relative viability (EMC-BAC-2; first compound 0.03162 µM): 0.84
relative viability (EMC-BAC-2; first compound 0.1 µM): 0.921
relative viability (EMC-BAC-2; first compound 0.3162 µM): 0.973
relative viability (EMC-BAC-2; first compound 1 µM): 0.839
relative viability (HARA; first compound 0.01 µM): 0.686
relative viability (HARA; first compound 0.03162 µM): 0.629
relative viability (HARA; first compound 0.1 µM): 0.868
relative viability (HARA; first compound 0.3162 µM): 0.664
relative viability (HARA; first compound 1 µM): 0.295
relative viability (NCI-H2405; first compound 0.01 µM): 0.744
relative viability (NCI-H2405; first compound 0.03162 µM): 0.57
relative viability (NCI-H2405; first compound 0.1 µM): 0.557
relative viability (NCI-H2405; first compound 0.3162 µM): 0.631
relative viability (NCI-H2405; first compound 1 µM): 0.347
relative viability (UMC-11; first compound 0.01 µM): 0.678
relative viability (UMC-11; first compound 0.03162 µM): 0.696
relative viability (UMC-11; first compound 0.1 µM): 0.656
relative viability (UMC-11; first compound 0.3162 µM): 0.665
relative viability (UMC-11; first compound 1 µM): 0.33
relative viability (ChaGo-K-1; first compound 0.01 µM): 0.871
relative viability (ChaGo-K-1; first compound 0.03162 µM): 0.914
relative viability (ChaGo-K-1; first compound 0.1 µM): 0.93
relative viability (ChaGo-K-1; first compound 0.3162 µM): 0.9
relative viability (ChaGo-K-1; first compound 1 µM): 0.958
relative viability (SK-LU-1; first compound 0.01 µM): 0.553
relative viability (SK-LU-1; first compound 0.03162 µM): 0.609
relative viability (SK-LU-1; first compound 0.1 µM): 0.393
relative viability (SK-LU-1; first compound 0.3162 µM): 0.188
relative viability (SK-LU-1; first compound 1 µM): 0.24
relative viability (HCC-78; first compound 0.01 µM): 0.937
relative viability (HCC-78; first compound 0.03162 µM): 0.864
relative viability (HCC-78; first compound 0.1 µM): 0.828
relative viability (HCC-78; first compound 0.3162 µM): 0.969
relative viability (HCC-78; first compound 1 µM): 0.416
relative viability (NCI-H1793; first compound 0.01 µM): 0.469
relative viability (NCI-H1793; first compound 0.03162 µM): 0.485
relative viability (NCI-H1793; first compound 0.1 µM): 0.456
relative viability (NCI-H1793; first compound 0.3162 µM): 0.446
relative viability (NCI-H1793; first compound 1 µM): 0.381
relative viability (A-427; first compound 0.01 µM): 0.82
relative viability (A-427; first compound 0.03162 µM): 0.849
relative viability (A-427; first compound 0.1 µM): 0.772
relative viability (A-427; first compound 0.3162 µM): 0.655
relative viability (A-427; first compound 1 µM): 0.331
relative viability (NCI-H2228; first compound 0.01 µM): 0.483
relative viability (NCI-H2228; first compound 0.03162 µM): 0.668
relative viability (NCI-H2228; first compound 0.1 µM): 0.461
relative viability (NCI-H2228; first compound 0.3162 µM): 0.37
relative viability (NCI-H2228; first compound 1 µM): 0.187
relative viability (NCI-H1944; first compound 0.01 µM): 0.443
relative viability (NCI-H1944; first compound 0.03162 µM): 0.493
relative viability (NCI-H1944; first compound 0.1 µM): 0.473
relative viability (NCI-H1944; first compound 0.3162 µM): 0.523
relative viability (NCI-H1944; first compound 1 µM): 0.496
relative viability (NCI-H23; first compound 0.01 µM): 0.477
relative viability (NCI-H23; first compound 0.03162 µM): 0.36
relative viability (NCI-H23; first compound 0.1 µM): 0.421
relative viability (NCI-H23; first compound 0.3162 µM): 0.392
relative viability (NCI-H23; first compound 1 µM): 0.201
relative viability (HCC-15; first compound 0.01 µM): 0.407
relative viability (HCC-15; first compound 0.03162 µM): 0.393
relative viability (HCC-15; first compound 0.1 µM): 0.413
relative viability (HCC-15; first compound 0.3162 µM): 0.351
relative viability (HCC-15; first compound 1 µM): 0.443
relative viability (HCC-366; first compound 0.01 µM): 0.358
relative viability (HCC-366; first compound 0.03162 µM): 0.329
relative viability (HCC-366; first compound 0.1 µM): 0.363
relative viability (HCC-366; first compound 0.3162 µM): 0.325
relative viability (HCC-366; first compound 1 µM): 0.13
relative viability (NCI-H2023; first compound 0.01 µM): 0.596
relative viability (NCI-H2023; first compound 0.03162 µM): 0.46
relative viability (NCI-H2023; first compound 0.1 µM): 0.293
relative viability (NCI-H2023; first compound 0.3162 µM): 0.156
relative viability (NCI-H2023; first compound 1 µM): 0.132
relative viability (NCI-H1734; first compound 0.01 µM): 0.761
relative viability (NCI-H1734; first compound 0.03162 µM): 0.683
relative viability (NCI-H1734; first compound 0.1 µM): 0.812
relative viability (NCI-H1734; first compound 0.3162 µM): 0.641
relative viability (NCI-H1734; first compound 1 µM): 0.562
relative viability (LC-2-ad; first compound 0.01 µM): 0.914
relative viability (LC-2-ad; first compound 0.03162 µM): 0.9
relative viability (LC-2-ad; first compound 0.1 µM): 0.906
relative viability (LC-2-ad; first compound 0.3162 µM): 0.647
relative viability (LC-2-ad; first compound 1 µM): 0.544
relative viability (NCI-H2009; first compound 0.01 µM): 0.279
relative viability (NCI-H2009; first compound 0.03162 µM): 0.35
relative viability (NCI-H2009; first compound 0.1 µM): 0.207
relative viability (NCI-H2009; first compound 0.3162 µM): 0.295
relative viability (NCI-H2009; first compound 1 µM): 0.236
relative viability (NCI-H2126; first compound 0.01 µM): 0.547
relative viability (NCI-H2126; first compound 0.03162 µM): 0.629
relative viability (NCI-H2126; first compound 0.1 µM): 0.529
relative viability (NCI-H2126; first compound 0.3162 µM): 0.639
relative viability (NCI-H2126; first compound 1 µM): 0.675
relative viability (NCI-H1993; first compound 0.01 µM): 0.458
relative viability (NCI-H1993; first compound 0.03162 µM): 0.482
relative viability (NCI-H1993; first compound 0.1 µM): 0.605
relative viability (NCI-H1993; first compound 0.3162 µM): 0.674
relative viability (NCI-H1993; first compound 1 µM): 0.536
relative viability (NCI-H838; first compound 0.01 µM): 0.632
relative viability (NCI-H838; first compound 0.03162 µM): 0.513
relative viability (NCI-H838; first compound 0.1 µM): 0.483
relative viability (NCI-H838; first compound 0.3162 µM): 0.537
relative viability (NCI-H838; first compound 1 µM): 0.305
